Holding throughout (type): cell-based
For assay [1], the system named is SK-hep-1 liver cancer cell line. Kind of assay: SRB analysis 3. The conditions noted are these: 48 hours. The procedure: (§1) Through SRB analysis (n=3), the effect of triple combination treatment of a CAC inhibitor (KN510: omeprazole), ACAA inhibitor (KN713: trimetazidine) and other anticancer drug on cell growth in the cancer cells was analyzed. (see Table 11).
(§2) The SRB assay was performed as follows: each cell line (100 μl) was seeded into 96-well microtiter plates at densities ranging from 5,000 to 40,000 cells/well depending on the doubling time of each cell line. After 24 hours, drug (100 μl per well) was added to each well and the culture was incubated at 37° C. for 48 hours. Cells were then fixed in 50% TCA (50 μl per well) and plates were incubated at 4° C. for a minimum of 1 hour or a maximum of 3 hours. After that, the liquid was removed from the plate, then rinsed 5 times with water and dried for approximately 12-24 hours at room temperature (RT). After the fixed cells were stained with 0.4% SRB (100 μl per well) for 10 minutes at room temperature, the plates were washed 3 times with 1% glacial acetic acid and dried at room temperature for about 12-24 hours. SRB staining was dissolved in 10 mM Trizma base and absorbance was read at 515 nm. The effect of the drug was expressed as GI50 (50% growth inhibition), TGI (total growth inhibition) or LC50 (lethal concentration). GI50 is the maximum concentration at the moment of 50% inhibition of cell proliferation and IC50 is the concentration of the drug that inhibits the enzyme activity in vitro by 50% in this study.

Assay [2] deals with MCF7 breast cancer cell line. Kind of assay: SRB analysis 3. The conditions noted are these: 48 hours. The procedure:
as §1, §2

Assay [3] has as its system MIA PaCa-2 pancreatic cancer (PDAC) cell line. The assay can be described thus: SRB analysis 3. The conditions noted are these: 48 hours. The procedure:
as §1, §2

The test system of assay [4] is MKN45 gastric cancer cell line. The assay can be described thus: SRB analysis 3. The conditions noted are these: 48 hours. How it is done: as §1, §2
Assay [5] relates to UACC62 melanoma cell line. The assay can be described thus: SRB analysis 3. The conditions noted are these: 48 hours. How it is done: as §1, §2
Assay [6] has as its system AGS gastric cancer cell line. The assay can be described thus: SRB analysis 3. The conditions noted are these: 48 hours. The procedure:
as §1, §2

The test system of assay [7] is OVCAR-8 ovarian cancer cell line. The assay can be described thus: SRB analysis 3. The conditions noted are these: 48 hours. The procedure: as §1, §2
For assay [8], the system named is H1975 non-small cell lung cancer (NSCLC) cell line. Kind of assay: SRB analysis 3. The conditions noted are these: 48 hours. The procedure: as §1, §2
The test system of assay [9] is PC-3 prostate cancer cell line. The assay can be described thus: SRB analysis 3. The conditions noted are these: 48 hours. How it is done: as §1, §2
Assay [10] relates to AsPC-1 pancreatic cancer (PDAC) cell line. Kind of assay: SRB analysis 3. The conditions noted are these: 48 hours. The procedure: as §1, §2
The test system of assay [11] is ACHN renal cancer cell line. Kind of assay: SRB analysis 3. The conditions noted are these: 48 hours. The procedure:
as §1, §2

Assay [12] has as its system MDA-MB-231 breast cancer cell line. Kind of assay: SRB analysis 3. The conditions noted are these: 48 hours. How it is done:
as §1, §2

For assay [13], the system named is COLO-205 colon cancer cell line. Kind of assay: SRB analysis 3. The conditions noted are these: 48 hours. The procedure: as §1, §2
Assay [14] has as its system Huh-7 liver cancer cell line. The assay can be described thus: SRB analysis 3. The conditions noted are these: 48 hours. How it is done:
as §1, §2

For assay [15], the system named is SK-OV-3 ovarian cancer cell line. Kind of assay: SRB analysis 3. The conditions noted are these: 48 hours. How it is done: as §1, §2
Assay [16] relates to Caki-1 renal cancer cell line. The assay can be described thus: SRB analysis 3. The conditions noted are these: 48 hours. How it is done: as §1, §2
The test system of assay [17] is A375 melanoma cell line. The assay can be described thus: SRB analysis 3. The conditions noted are these: 48 hours. How it is done:
as §1, §2

The subject of assay [18] is A549 non-small cell lung cancer (NSCLC) cell line. Kind of assay: SRB analysis 3. The conditions noted are these: 48 hours. The procedure:
as §1, §2

Assay [19] deals with HCT-116 colon cancer cell line. The assay can be described thus: SRB analysis 3. The conditions noted are these: 48 hours. How it is done: as §1, §2
Assay [20] relates to DU145 prostate cancer cell line. Kind of assay: SRB analysis 3. The conditions noted are these: 48 hours. How it is done: as §1, §2
Assay [21] has as its system cancer cells. The assay can be described thus: SRB analysis 3, triple combination, summary over cancer panels. How it is done: as §1, §2
In assay [22] the test system is U87MG glioblastoma (GBM) cell line. Kind of assay: SRB analysis 3. The conditions noted are these: Cisplatin 1 μM, 48 hours. The procedure: as §2, with “Through SRB analysis (n=3), the effect of triple combination treatment of a CAC inhibitor ([…] inhibitor (KN713: trimetazidine) and other anticancer drug on cell growth in the cancer cells was analyzed. (see Table 11). The” for “The”, “nm.” for “nm. The effect of the drug was expressed as GI50 (50% growth inhibition), TGI (total growth inhibition) or LC50 (lethal concentration). GI50 is the maximum concentration at the moment of 50% inhibition of cell proliferation and IC50 is the concentration of the drug that inhibits the enzyme activity in vitro by 50% in this study.”

The subject of assay [23] is T87G glioblastoma (GBM) cell line. Kind of assay: SRB analysis 3. The conditions noted are these: Cisplatin 1 μM, 48 hours. How it is done: as §2, with “Through SRB analysis (n=3), the effect of triple combination treatment of a CAC inhibitor ([…] inhibitor (KN713: trimetazidine) and other anticancer drug on cell growth in the cancer cells was analyzed. (see Table 11). The” for “The”, “nm.” for “nm. The effect of the drug was expressed as GI50 (50% growth inhibition), TGI (total growth inhibition) or LC50 (lethal concentration). GI50 is the maximum concentration at the moment of 50% inhibition of cell proliferation and IC50 is the concentration of the drug that inhibits the enzyme activity in vitro by 50% in this study.”

The test system of assay [24] is SNU-324 pancreatic cancer cells. The assay can be described thus: SRB analysis 2. The conditions noted are these: SNU324; KN715 200 μM; 48 hours. The procedure: (§3) The SRB assay was performed as follows: each cell line (100 μl) was seeded into 96-well microtiter plates at densities ranging from 5,000 to 20,000 cells/well depending on the doubling time of each cell line. After cell seeding, microtiter plates were incubated for 24 h before addition of experimental drug. Drugs were prepared at the indicated concentrations and 100 μl was added to each well; The plates were then incubated in a CO2 incubator. Then, cold TCA was added to terminate the assay. Cells were fixed in situ by gentle addition of 50 μl of cold 50% (w/v) TCA (final concentration: 10% TCA) and incubated at 4° C. for 60 min. The supernatant was discarded and the plate was washed 5 times with tap water and then air dried. A solution (100 μl) of 0.4% (w/v) SRB (Sulforhodamine B) in 1% acetic acid was added to each well, and the plate was left at room temperature for 10 minutes. After staining, the plates were air dried after washing 5 times with 1% acetic acid to remove unbound dye. The bound dye was then solubilized with 10 mM trizma base and the absorbance was recorded at 515 nm using an automated plate reader.

For assay [25], the system named is MIA PaCa2 pancreatic cancer cells. Kind of assay: SRB analysis 2. The conditions noted are these: MIA PaCa-2; KN715 200 μM; 48 hours. The procedure:
as §3

Assay [26] deals with BxPC-3 pancreatic cancer cells. Kind of assay: SRB analysis 2. The conditions noted are these: KN715 200 μM, 48 hours. The procedure: as §3
Assay [27] concerns SU.86.86 pancreatic cancer cells. The assay can be described thus: SRB analysis 2. The conditions noted are these: KN715 200 μM, 48 hours. How it is done:
as §3

Assay [28] has as its system AsPC-1 pancreatic cancer cells. Kind of assay: SRB analysis 2. The conditions noted are these: KN715 200 μM, 48 hours. The procedure: as §3
The mark [29] stands for this setting: Breast Cancer, BT-549, MDA MB 231.
The mark [30] stands for this setting: Ovarian Cancer, SK-OV-3, OVCAR-3.
[31] abbreviates: Renal cell carcinoma, ACHN, CAKI-1.

“And” between values parts separate entries of the source, which are not always exact repeats. Identical values can stand only once.

On to `O=c1[nH]cc(F)c(=O)[nH]1` [5-FU], for which the “cell growth (Control = 100)” value in assay [1] (5-FU 5 μM) came to 149.7317; in [2] (5-FU 5 μM), 11.29; in assay [3] (5-FU 10 μM), 36.7557; in [4] (MKN45, 5-FU 5 μM), 51.03; in [5] (5-FU 5 μM) it was 59.14; in assay [6] (5-FU 5 μM), 39.84. The “cell growth (Control = 100)” value turned out to be 77.83 in assay [7] (5-FU 5 μM); 58.333 in assay [8] (5-FU 5 μM); 51.6552 in [9] (5-FU 5 μM); 64.54 in assay [10] (5-FU 10 μM); 26.38 in [11] (5-FU 5 μM); 73.95 in assay [12] (5-FU 5 μM). Further, the “cell growth (Control = 100)” value is given as −4.957 in assay [13] (5-FU 5 μM); 34.9345 in [14] (5-FU 5 μM); 80.76 in [15] (5-FU 5 μM); 59.41 in assay [16] (5-FU 5 μM); 95.91 in assay [17] (5-FU 5 μM); 28.5 in assay [18] (5-FU 5 μM). Moreover, the “cell growth (Control = 100)” value in assay [19] (5-FU 5 μM) was 14.62; in [20] (5-FU 5 μM) it was 59.63. Also, the “Positive/Negative (triple combination of KN510, KN713 and the listed anticancer drug)” value (“Positive/Negative” for short) in [21] (setting [29]) was “negative”; in assay [21] (Colon Cancer, HT-29, COLO-205), “Positive”; in [21] (GBM, U87MG, T87G) it was “Positive”; in assay [21] (Liver Cancer, SNU-449, Huh-7) it was “Positive”; in [21] (NSCLC, A549, H522) it was “Positive”; in assay [21] (setting [30]) it was “negative”. For the same compound, the “Positive/Negative” value in [21] (PDAC, MIA PaCa-2, PANC-1) is recorded as “Positive”; in [21] (Prostate Cancer, PC-3, DU-145), “Positive”; in assay [21] (setting [31]), “Positive”; in assay [21] (Stomach Cancer, MKN-28, AGS), “Positive”; in assay [21] (melanoma, UACC62, A375), “negative”.

As for `N.N.[Cl][Pt][Cl]` [Cisplatin], the “cell growth (Control = 100)” value in assay [22] is reported as 87.30; in assay [23] it was 120.49; in assay [1] (Cisplatin 1 μM), 136.3148; in [2] (Cisplatin 1 μM) it was 70.82; in assay [3] (Cisplatin 1 μM), 95.91; in assay [4] (MKN-45, Cisplatin 1 μM), 96.28. In addition, the “cell growth (Control = 100)” value in [5] (Cisplatin 1 μM) amounted to 91.68; in assay [6] (Cisplatin 1 μM), 74.02; in assay [7] (Cisplatin 1 μM) it was 84.76; in assay [8] (Cisplatin 1 μM), 97.49; in [9] (Cisplatin 1 μM) it was 67.15; in assay [10] (Cisplatin 1 μM), 94.84. Further, the “cell growth (Control = 100)” value in [11] (Cisplatin 1 μM) is given as 118.1147; in assay [12] (Cisplatin 1 μM), 93.91; in assay [13] (Cisplatin 1 μM), 83.44; in assay [14] (Cisplatin 1 μM) it was 66.69; in [15] (Cisplatin 1 μM), 75.0979; in assay [16] (Cisplatin 1 μM), 113.4691. The “cell growth (Control = 100)” value in [17] (Cisplatin 1 μM) turned out to be 85.06; in [18] (Cisplatin 1 μM), 75.07; in assay [19] (Cisplatin 1 μM), 100.5484; in assay [20] (Cisplatin 1 μM), 60.85. In addition, the “Positive/Negative” value in assay [21] (setting [29]) was “negative”; in assay [21] (Colon Cancer, HT-29, COLO-205), “negative”; in assay [21] (GBM, U87MG, T87G) it was “negative”; in [21] (Liver Cancer, SNU-449, Huh-7), “negative”; in [21] (NSCLC, A549, H522), “negative”; in [21] (setting [30]), “negative”. Also, the “Positive/Negative” value is “negative” in [21] (PDAC, MIA PaCa-2, PANC-1); “negative” in assay [21] (Prostate Cancer, PC-3, DU-145); “negative” in assay [21] (setting [31]); “negative” in assay [21] (Stomach Cancer, MKN-28, AGS); “negative” in assay [21] (melanoma, UACC62, A375).

With `COc1ccccc1OCC(O)CN1CCN(CC(=O)Nc2c(C)cccc2C)CC1` (centres unmarked) [KN715, ranolazine], the “degree of cell growth based on the control (100%)” value in [24] is 23.58% and 23.63% and 27.45%; in assay [25] it was 87.91% and 65.15% and 73.29%; in assay [26], 46.24% and 45.76% and 59.04%; in assay [27], 90.37% and 63.92% and 73.38%; in assay [28] it was 86.53% and 57.91% and 63.15%.

As for `CCCS(=O)(=O)Nc1ccc(F)c(C(=O)c2c[nH]c3ncc(-c4ccc(Cl)cc4)cc23)c1F` [Vermutafenib], the figures for the “cell growth (Control = 100)” value in [5] (Vermutafenib 0.5 μM) and in assay [17] (Vermutafenib 0.5 μM) were 2.10 and 7.77, respectively.

The record behind these values is patent publication US12728119B2, “Pharmaceutical composition for preventing or treating cancer comprising 3-ketoacyl CoA thiolase inhibitor and carnitine acylcarnitine carrier inhibitor” (NATIONAL CANCER CENTER, priority 2020, dated 2026).
